Measurements from patent publication US11458200B2, “Constructs, agents, and methods for facilitated ablation of cardiac tissue” (priority 2016, dated 2022).
Entries after “also recorded” stand apart in the source; their conditions may differ.

Columns and labels:
myocardium = settings: porcine model; cited from earlier work
adenocarcinoma tumor = settings: combined quercetin and RF energy; cited from earlier work
epicardium = assay: Open-chest rodent survival model of epicardial RF ablation after IV quercetin; format: in vivo; settings: for Lesion Depth: 10 mg/kg
Experimental: Using an open-chest rodent survival model and a custom-made catheter, RF was applied to the epicardium at 3 W for 20 seconds after infusion of a HSP inhibitor, intravenous quercetin (n=20, 10 mg/kg), or control (n=20). Animals were sacrificed at 1 (n=10 each) and 24 hours (n=10 each) after ablation. RFA lesions were stained and analyzed under microscopy.

[1] = 24 hours after RFA, 3 W for 20 seconds, IV 10 mg/kg, N 10

Row | SMILES | ablation lesion sizes after in vivo injection (myocardium) | HSP expression (adenocarcinoma tumor) | apoptosis (adenocarcinoma tumor) | tumor destruction (adenocarcinoma tumor) | ablation lesions analyzed at 1 hour after RFA (epicardium; 1 hour after RFA, IV 10 mg/kg) | Volume (epicardium; [1]) [µL] | Lesion Depth (epicardium; [1]) [mm] | Lesion Depth (epicardium; 24 hours after RFA, 3 W for 20 seconds, IV 10 mg/kg, N 10, listed as quercetin) [mm] | lesion volumes (epicardium; 24 hours after ablation, vs 25.7±8.6 control, p=0.01) [µL] | adverse events related to HSP inhibition (epicardium; IV 10 mg/kg) | microscopy of lesions compared to controls (epicardium; in vivo)
1 | [Gd] [gadolinium] | increased lesion sizes; also recorded: larger lesions |  |  |  |  |  |  |  |  |  | 
2 | O=c1c(O)c(-c2ccc(O)c(O)c2)oc2cc(O)cc(O)c12 [Quercetin, 3,3′,4′,5,7-pentahydroxyflavone] |  | decreased HSP expression | increased apoptosis | larger tumor destruction | did not acutely result in larger ablation lesions | 37.6 ± 10.5 | 1.8 ± 0.3 | 1.8±0.3 | 37.6 ± 10.5 | No adverse events | larger necrotic cores and border zones
